We go through 8 compounds from ChEMBL document CHEMBL1909640, “Mode of action investigation for the antibacterial cationic anthraquinone analogs” (2011).

Active and inactive are the calls of the source. The rule behind the calls is not given here.

For assay [1], the system named is Staphylococcus aureus. The assay is described as follows: Induction of redox process disruption in Staphylococcus aureus ATCC 25923 at 0.064 ug/mL after 2 hrs by CTC dye based assay. In kind it is functional, organism-based.
Assay [2] concerns Staphylococcus aureus. The assay is described as follows: Induction of plasma membrane disruption in Staphylococcus aureus ATCC 25923 at 0.064 ug/mL after 2 hrs by Sytox dye based assay. In kind it is functional, organism-based.
In assay [3] the test system is Staphylococcus aureus. In words: Induction of redox process disruption in Staphylococcus aureus ATCC 25923 at 8 ug/mL after 6 hrs by CTC dye based assay. In kind it is functional, organism-based.
In assay [4] the test system is Escherichia coli. The assay is described as follows: Induction of redox process disruption in Escherichia coli ATCC 25922 at 4 ug/mL after 6 hrs by CTC dye based assay. Type of assay: functional, organism-based.
Assay [5] has as its system Staphylococcus aureus. The assay is described as follows: Induction of redox process disruption in Staphylococcus aureus ATCC 25923 at 8 ug/mL after 2 hrs by CTC dye based assay. In kind it is functional, organism-based.
Assay [6] deals with Staphylococcus aureus. The assay is described as follows: Induction of plasma membrane disruption in Staphylococcus aureus ATCC 25923 at 0.064 ug/mL after 10 mins by Sytox dye based assay. Type of assay: functional, organism-based.
The test system of assay [7] is Staphylococcus aureus. The assay is described as follows: Induction of plasma membrane disruption in Staphylococcus aureus ATCC 25923 at 8 ug/mL after 2 hrs by Sytox dye based assay. Type of assay: functional, organism-based.
Assay [8] concerns Escherichia coli. The assay is described as follows: Induction of redox process disruption in Escherichia coli ATCC 25922 at 4 ug/mL after 2 hrs by CTC dye based assay. In kind it is functional, organism-based.
In assay [9] the test system is Staphylococcus aureus. The assay is described as follows: Antibacterial activity against Staphylococcus aureus ATCC 25923 after 12 to 18 hrs by broth dilution method. In kind it is functional.
The subject of assay [10] is Staphylococcus aureus. In words: Induction of redox process disruption in Staphylococcus aureus ATCC 25923 at 0.064 ug/mL after 6 hrs by CTC dye based assay. In kind it is functional, organism-based.
The subject of assay [11] is Escherichia coli. The assay is described as follows: Induction of plasma membrane disruption in Escherichia coli ATCC 25922 at 4 ug/mL after 2 hrs by Sytox dye based assay. Type of assay: functional, organism-based.
The subject of assay [12] is Escherichia coli. The assay is described as follows: Induction of plasma membrane disruption in Escherichia coli ATCC 25922 a 4 ug/mL after 10 mins by Sytox dye based assay. Type of assay: functional, organism-based.
For assay [13], the system named is Escherichia coli. In words: Induction of plasma membrane disruption in Escherichia coli ATCC 25922 at 2 mg/mL after 10 mins by Sytox dye based assay. In kind it is functional, organism-based.
Assay [14] deals with Escherichia coli. In words: Induction of plasma membrane disruption in Escherichia coli ATCC 25922 at 2 mg/mL after 2 hrs by Sytox dye based assay. Type of assay: functional, organism-based.
Assay [15] concerns Escherichia coli. The assay is described as follows: Induction of redox process disruption in Escherichia coli ATCC 25922 at 2 mg/mL after 2 hrs by CTC dye based assay. In kind it is functional, organism-based.
Assay [16] concerns Escherichia coli. The assay is described as follows: Antibacterial activity against Escherichia coli ATCC 25922 after 12 to 18 hrs by broth dilution method. In kind it is functional.
For assay [17], the system named is Staphylococcus aureus. The assay is described as follows: Induction of plasma membrane disruption in Staphylococcus aureus ATCC 25923 at 8 ug/mL after 10 mins by Sytox dye based assay. In kind it is functional, organism-based.
In assay [18] the test system is Escherichia coli. In words: Induction of redox process disruption in Escherichia coli ATCC 25922 at 2 mg/mL after 6 hrs by CTC dye based assay. In kind it is functional, organism-based.

With `CCCCCCCCCCn1n[n+](C)c2c1C(=O)c1ccccc1C2=O.[Cl-]`, the result in [1], in assay [2], in [4], in assay [6], in assay [7] and in assay [8] was inactive. Besides, the result in assay [10], in [11], in assay [12] and in assay [17] was inactive. The result in assay [3], in assay [5], in assay [13], in assay [14], in assay [15] and in assay [18] was Active. Also, the figures for the MIC in [9] and in [16] were 0.032 µg/mL and 32 µg/mL, respectively.
On to Hexadecyltrimethylammonium bromide, for which the result in assay [13] and in assay [14] was Active.
Regarding `CCCCCCCCCCCCCCCCn1n[n+](C)c2c1C(=O)c1ccccc1C2=O.[Cl-]`, the result in assay [1], in assay [2], in assay [4], in [6], in assay [7] and in assay [8] was inactive. In addition, the result in assay [10], in assay [11], in assay [12] and in [17] was inactive. In addition, the outcome in assay [3], in assay [5], in [13], in assay [14], in assay [15] and in assay [18] was Active. The MIC in [9] is 0.25 µg/mL; in [16], ≥ 250 µg/mL.
As for `CCCCCCCCn1n[n+](CC)c2c1C(=O)c1ccccc1C2=O.[Cl-]`, the outcome in assay [1], in assay [2], in [4], in [6], in assay [7] and in assay [8] was inactive. For the same compound, the result in [10], in [11], in assay [12] and in assay [17] was inactive. For the same compound, the outcome in assay [3], in assay [5], in assay [13], in assay [14], in assay [15] and in [18] was Active. The MIC in assay [9] was 0.25 µg/mL; in [16] it was ≥ 250 µg/mL.
As to `CCCCCCCCCn1n[n+](C)c2c1C(=O)c1ccccc1C2=O.[Cl-]`, the outcome in [1], in [2], in [4], in [6], in assay [7] and in [8] was inactive. Moreover, the outcome in [10], in [11], in [12] and in assay [17] was inactive. The outcome in assay [3], in [5], in assay [13], in [14], in assay [15] and in [18] was Active. Also, the MIC worked out at 0.032 µg/mL in assay [9] and 64 µg/mL in [16].
Turning to `CCCCCCCCn1n[n+](C)c2c1C(=O)c1ccccc1C2=O.[Cl-]`, the result in [1], in [2], in assay [4], in assay [6], in assay [7] and in [8] was inactive. Moreover, the result in assay [10], in assay [11], in assay [12] and in assay [17] was inactive. Also, the outcome in assay [3], in assay [5], in assay [13], in [14], in [15] and in [18] was Active. Moreover, the MIC in [9] stood at 0.032 µg/mL; in assay [16], 16 µg/mL.
For the compound `CCCCCCCCCCCn1n[n+](C)c2c1C(=O)c1ccccc1C2=O.[Cl-]`, the outcome in assay [1], in assay [2], in [4], in assay [6], in [7] and in assay [8] was inactive. In addition, the result in assay [10], in [11], in assay [12] and in assay [17] was inactive. Also, the outcome in assay [3], in assay [5], in assay [13], in assay [14], in [15] and in assay [18] was Active. Moreover, the MIC in [9] stood at 0.25 µg/mL; in [16], 32 µg/mL.
Take `CCCCCCCCCCCCn1n[n+](C)c2c1C(=O)c1ccccc1C2=O.[Cl-]`: the result in assay [1], in [2], in assay [4], in [6], in assay [7] and in assay [8] was inactive. Besides, the outcome in [10], in [11], in assay [12] and in [17] was inactive. In addition, the result in assay [3], in assay [5], in assay [13], in assay [14], in [15] and in [18] was Active. In addition, the MIC in assay [9] is 0.064 µg/mL; in assay [16] it was 16 µg/mL.
